# Like-named read-outs stand apart in the source and are kept apart here.
# Key:
# [1] = test system: S. pyogenes A9604; assay: animal or person; format: in vivo, mice; conditions: Streptococcus pyogenes, A9604, in Mus musculus, po, read-out: PD50 /treatment
# [2] = test system: P. mirabilis A9900; assay: animal or person; format: in vivo, mice; conditions: Proteus mirabilis, A9900, in Mus musculus, po
# [3] = test system: K. pneumoniae A9977; assay: animal or person; format: in vivo, mice; conditions: Klebsiella pneumoniae, A9977, in Mus musculus, po, read-out: PD50 /treatment
# [4] = test system: Ps. fluorescens; conditions: in vivo; cited from earlier work
# [5] = test system: Plasmodium berghei; conditions: in vivo; cited from earlier work
# [6] = test system: E. coli A15119; assay: animal or person; format: in vivo, mice; conditions: Escherichia coli, A15119, in Mus musculus, po, read-out: PD50 /treatment
# [7] = test system: Histoplasma capsulatum; conditions: mouse, in vivo, iv; cited from earlier work
# [8] = test system: S. aureus A9537; assay: animal or person; format: in vivo, mice; conditions: Staphylococcus aureus, A9537, in Mus musculus, po
# [9] = test system: Ent. cloacae; assay: microbe, parasite or virus in culture; format: cell-based; conditions: Enterobacter cloacae
# Description: (§1) The geometric mean MIC's were determined from MIC's obtained in two separate tests of each of the strains of Staphylococcus and Proteus, and three separate tests for each of the other organisms.
# [10] = test system: Pr. morganii; assay: microbe, parasite or virus in culture; format: cell-based; conditions: Morganella morganii
# Description: as §1
# [11] = test system: Pr. rettgeri; assay: microbe, parasite or virus in culture; format: cell-based; conditions: Providencia rettgeri
# Description: as §1
# [12] = test system: Pr. mirabilis; assay: microbe, parasite or virus in culture; format: cell-based; conditions: Proteus mirabilis
# Description: as §1
# [13] = test system: Staph. aureus; assay: microbe, parasite or virus in culture; format: cell-based; conditions: Staphylococcus aureus, read-out: Geometric Mean MIC
# Description: as §1
# [14] = test system: Kl. pneumoniae; assay: microbe, parasite or virus in culture; format: cell-based; conditions: Klebsiella pneumoniae
# Description: as §1
# [15] = test system: Pr. vulgaris; assay: microbe, parasite or virus in culture; format: cell-based; conditions: for MIC: Proteus vulgaris
# Description: as §1
# [16] = test system: E. coli; assay: microbe, parasite or virus in culture; format: cell-based; conditions: Escherichia coli
# Description: as §1
# [17] = laboratory animals, cited from earlier work
# [18] = test system: Ent. cloacae; assay: microbe, parasite or virus in culture; format: cell-based; conditions: Enterobacter cloacae; remark: listed apart in the source
# Description: (§2) *The MIC's were determined by the twofold broth dilution method following
# (§3) overnight incubation at 37° C in Meuller-Hinton Broth containing 2
# (§4) lysed defibrinated horse blood and using 10^-4 dilutions of overnight
# (§5) broth cultures (10^-3 dilutions of Staph. aureus strains A9606 and
# (§6) A15097) as inocula at the rate of 0.5 ml of inoculum per 0.5 ml of […]
# [19] = test system: Pr. mirabilis; assay: microbe, parasite or virus in culture; format: cell-based
# Description: as §2, §3, §4, §5, §6
# [20] = test system: Ps. aeruginosa; assay: microbe, parasite or virus in culture; format: cell-based; conditions: Pseudomonas aeruginosa
# Description: as §2, §3, §4, §5, §6
# [21] = test system: Staph. aureus; assay: microbe, parasite or virus in culture; format: cell-based
# Description: as §2, §3, §4, §5, §6
# [22] = test system: Kl. pneumoniae; assay: microbe, parasite or virus in culture; format: cell-based; conditions: Klebsiella pneumoniae; remark: listed apart in the source
# Description: as §2, §3, §4, §5, §6
# [23] = test system: E. coli; assay: microbe, parasite or virus in culture; format: cell-based; conditions: Escherichia coli; remark: listed apart in the source
# Description: as §2, §3, §4, §5, §6
# [24] = test system: a variety of bacterial species; conditions: cited from earlier work
# [25] = test system: experimental tuberculosis; conditions: cited from earlier work
# [26] = test system: S. typhosa; conditions: in vivo; cited from earlier work
# [27] = test system: experimental tuberculosis; conditions: cited from earlier work; remark: listed apart in the source
# [28] = test system: A20119; assay: Antibacterial activity, MIC by twofold broth dilution (Table 1), organism name not given; format: cell-based
# Description: as §2, §3, §4, §5, §6
compound,measurement,setting,value
"Nc1ccc(P(=O)(O)O)cc1 [P, p-aminophenylphosphonic acid]",ED50,[1],> 400 mg/kg
same,ED50,"[2]; read-out: PD50 /treatment, oral, mice, challenge 6×10^6, 0 and 2 hr post-challenge",> 200 mg/kg
same,ED50,"[2]; read-out: PD50 /treatment, oral, mice, challenge 8×10^6, 0 and 2 hr post-challenge (1st P. mirabilis line)",> 800 mg/kg
same,ED50,"[2]; read-out: PD50 /treatment, oral, mice, challenge 8×10^6, 0 and 2 hr post-challenge (3rd P. mirabilis line)",> 200 mg/kg
same,ED50,[3]; 54 h,> 400 mg/kg
same,ED50,[3],> 400 mg/kg
same,efficacy in infected mice,[4],effective in vivo
same,efficacy in infected mice,[5],effective in vivo
same,ED50,[6]; 3 h,> 400 mg/kg
same,ED50,[6],> 400 mg/kg
same,protective effect,[7],some protective effect
same,ED50,[8]; read-out: PD50 /treatment,> 400 mg/kg
same,ED50,"[8]; read-out: PD50 /treatment, oral, mice, challenge 1×10^5, 0 and 4 hr post-challenge",> 100 mg/kg
same,MIC,"[9]; read-out: Geometric Mean MIC, 1 strain (1st Ent. cloacae line)",8 µg/mL
same,MIC,"[9]; read-out: Geometric Mean MIC, 1 strain (3rd Ent. cloacae line)",> 125 µg/mL
same,MIC,"[9]; read-out: Geometric Mean MIC, 2 strains (4th Ent. cloacae line)",63 µg/mL
same,MIC,"[9]; read-out: Geometric Mean MIC, 3 strains (2nd Ent. cloacae line)",20 µg/mL
same,MIC,"[10]; read-out: Geometric Mean MIC, 1 strain (1st Pr. morganii line)",> 125 µg/mL
same,MIC,"[10]; read-out: Geometric Mean MIC, 2 strains (2nd Pr. morganii line)",11.3 µg/mL
same,MIC,"[11]; read-out: Geometric Mean MIC, 1 strain (1st Pr. rettgeri line)",0.5 µg/mL
same,MIC,"[11]; read-out: Geometric Mean MIC, 1 strain (2nd Pr. rettgeri line)",> 125 µg/mL
same,MIC,"[12]; read-out: Geometric Mean MIC, 1 strain (3rd Pr. mirabilis line)",11.3 µg/mL
same,MIC,"[12]; read-out: Geometric Mean MIC, 1 strain (4th Pr. mirabilis line)",16 µg/mL
same,MIC,"[12]; read-out: Geometric Mean MIC, 2 strains (2nd Pr. mirabilis line)",> 105 µg/mL
same,MIC,"[12]; read-out: Geometric Mean MIC, 4 strains (1st Pr. mirabilis line)",7.3 µg/mL
same,MIC,[13],> 109 µg/mL
same,MIC,"[14]; read-out: Geometric Mean MIC, 1 strain (2nd Kl. pneumoniae line)",40 µg/mL
same,MIC,"[14]; read-out: Geometric Mean MIC, 1 strain (4th Kl. pneumoniae line)",> 125 µg/mL
same,MIC,"[14]; read-out: Geometric Mean MIC, 2 strains (3rd Kl. pneumoniae line)",40 µg/mL
same,MIC,"[14]; read-out: Geometric Mean MIC, 5 strains (1st Kl. pneumoniae line)",18 µg/mL
same,MIC,"[15]; read-out: Geometric Mean MIC, 1 strain (first listed Pr. vulgaris)",> 125 µg/mL
same,MIC,"[15]; read-out: Geometric Mean MIC, 2 strains (2nd Pr. vulgaris line)",8 µg/mL
same,component in the 16:1 mixture at its MIC as % of its individual MIC,[15]; first listed strain of Pr. vulgaris,< 3.0%
same,amount of component in 4 μg/ml of the 16:1 mixture,"[15]; first listed strain of Pr. vulgaris, 16:1 mixture at its MIC",3.76 µg/mL
same,MIC,"[16]; read-out: Geometric Mean MIC, 1 strain (1st E. coli line)",6.4 µg/mL
same,MIC,"[16]; read-out: Geometric Mean MIC, 2 strains (2nd E. coli line)",18 µg/mL
same,MIC,"[16]; read-out: Geometric Mean MIC, 2 strains (3rd E. coli line)",> 125 µg/mL
same,MIC,"[16]; read-out: Geometric Mean MIC, 4 strains (4th E. coli line)",20 µg/mL
same,absorption,[17]; blood level studies,poor absorption
same,toxicity,[17],low toxicity
same,MIC,[18]; strain A-9656,> 125 µg/mL
same,MIC,[18]; strain A-9657,63 µg/mL
same,MIC,[18]; strain A-9659,> 125 µg/mL
same,MIC,[19]; Proteus mirabilis,> 125 µg/mL
same,MIC,"[19]; Proteus mirabilis, strain A-9696",> 125 µg/mL
same,MIC,[20]; strain A15151,1 µg/mL
same,MIC,[20]; strain A20126,16 µg/mL
same,MIC,[20]; strain A20227,1 µg/mL
same,MIC,[20]; strain A20229,63 µg/mL
same,MIC,[20]; strain A20543,16 µg/mL
same,MIC,[20]; strain A20574,1 µg/mL
same,MIC,[20]; strain A20602,125 µg/mL
same,MIC,[20]; strain A-9843a,4 µg/mL
same,MIC,[20]; strain A-9925,16 µg/mL
same,MIC,[21]; Staphylococcus aureus,> 125 µg/mL
same,MIC,"[21]; strain A15097, 10^-3 dilution inoculum",> 125 µg/mL
same,MIC,"[21]; strain A-9606, 10^-3 dilution inoculum",> 125 µg/mL
same,MIC,[22],> 125 µg/mL
same,MIC,[22]; strain A15130,> 125 µg/mL
same,MIC,[22]; strain A20468,> 125 µg/mL
same,MIC,[23],> 125 µg/mL
same,MIC,[23]; strain A15119,> 125 µg/mL
same,MIC,[23]; strain A-9671,> 125 µg/mL
same,in vitro activity compared with sulfathiazole,[24]; molar basis,approached that of sulfathiazole
same,in vitro activity,[24]; relative to the compounds tested,generally the most active of the compounds tested
same,effect in vivo,[25],no effect in vivo
same,efficacy in infected mice,[26],effective in vivo
same,tubercularstatic activity in vitro,[27],good tubercularstatic activity in vitro
same,MIC,[28],> 125 µg/mL
"COc1cc(Cc2cnc(N)nc2N)cc(OC)c1OC [T, 2,4-diamino-5-(3',4',5'-trimethoxybenzyl)pyrimidine]",ED50,[1],> 400 mg/kg
same,ED50,[2]; read-out: PD50 /treatment,> 200 mg/kg
same,ED50,[3]; 54 h,348 mg/kg
same,ED50,[6]; 3 h,200 mg/kg
same,ED50,[6],262 mg/kg
same,MIC,[13],0.5 µg/mL
same,Geometric Mean MIC,[15],0.6 µg/mL
same,amount of component in 4 μg/ml of the 16:1 mixture,[15],0.235 µg/mL
same,component in the 16:1 mixture at its MIC as % of its individual MIC,[15],23%
same,MIC,[15]; read-out: Geometric Mean MIC,1 µg/mL
same,MIC,[19],4 µg/mL
same,MIC,[19]; Proteus mirabilis,2 µg/mL
same,MIC,[21]; Staphylococcus aureus,0.25 µg/mL
same,MIC,[28],16 µg/mL

# From patent publication US4125610A, “Antibacterial compositions” (priority 1977, dated 1978)
